Results as given in patent publication US20050171211A1, “Gingerol analogues and use thereof” (priority 2002, published 2005).
Where two headings read alike, the source gives them in different places.

Columns and labels:
[1] = Test about scavenging DPPH radical; settings: final concentration 10 μg/mL; for Ratio of scavenging DPPH radical: 20 minutes, darkness, ambient temperature, absorbance at 517 nm
Experimental: Concerning radical-scavenging activity, a stable radical DPPH (1,1-diphenyl-2-picrylhydrazyl) was used for assaying the radical-scavenging activities of test compounds [the compound of the formula (11) and the compound of the formula (12) and a control sample dl-α-tocopherol (manufactured by Tokyo Kasei Kogyo Co., Ltd.)]. The assay method is as follows. Tris below is an acronym of tris(hydroxymethyl)aminomethane and M represents the concentration unit Mol/L.
1 ml of 200 μM DPPH solution in ethanol was added to 800 μl of 100 mM Tris-HCl buffer, pH 7.4 and 200 μl of a test compound solution in ethanol (to a final concentration of 10 μg/mL), for sufficient agitation. After the resulting mixture was left to stand alone in darkness at ambient temperature for 20 minutes, the absorbance at 517 nm was measured (absorbance of the test solutions).
Meanwhile, 800 μl of 100 mM Tris-HCl buffer, pH 7.4, 200 μl of ethanol and 1 ml of 200 μM DPPH solution in ethanol were used for the same procedures as described above to measure the absorbance to obtain the absorbance of the blank.
The individual test compounds and the blank were repeatedly treated by the same procedures three times, and the mean of the resulting absorbance values was inserted in the following formula, to calculate the ratio of scavenging DPPH radical. Ratio of scavenging DPPH radical (%)={1-(absorbance of sample solution/absorbance of blank solution)}×100

[2] = Test about suppression of lipid peroxide generation in linoleic acid
Experimental: Using the compound of the formula (11) as obtained in Example 1 and the compound of the formula (12) as obtained in Example 2, a test about the suppression of lipid peroxide generation in linoleic acid was done. Along with the compounds, dl-α-tocopherol (manufactured by Tokyo Kasei Kogyo Co., Ltd.) was tested similarly, to obtain control data.
The test procedures are as follows. As a test result, the ratio of residual linoleic acid by the following procedure (3) is described in Table 1.
(1) After ethanol (2.0 g ) was added to linoleic acid (0.2 g; manufactured by Tokyo Kasei Kogyo Co., Ltd.), a test compound (0.01 g) and a surface active agent Nissan OT-221 (0.4 g; manufactured by NOF Corporation) placed in a 50-ml screw vial, for dissolution, distilled water (17.39 g) was added to the resulting solution for agitation, and was then sealed and left to stand alone in a thermostat at 40° C. Such sample was prepared in a duplex manner.
A blank test with no test compound added was similarly done.
(2) The amount of remaining linoleic acid one week, 2 weeks, 3 weeks and 4 weeks after the start of the test was assayed by HPLC.
The HPLC analytical conditions were as follows. Wavelength for detection: 210 nm. Mobile phase: a mixture solution of a disodium hydrogen phosphate-phosphate buffer adjusted to pH 2.5 and methanol (10:90). Flow: 1 ml/min. Column: ODS-8OTs (4.6 Φmm×150 mm). Column temperature at 40° C.
(3) Each sample was assayed by HPLC two times. The ratio of remaining linoleic acid was calculated on the basis of the mean of four assay values.

[3] = tested on: mushroom tyrosinase; assay: Test about the inhibition of tyrosinase activity using L-dopa as substrate; assay type: biochemical; settings: 0.27 or 0.54 μmol in 3 ml enzyme reaction solution, 25° C.
Experimental: Using the compound of the formula (11) obtained in Example 1, a test about the inhibition of tyrosinase activity using L-dopa as substrate was done. The same test was done about arbutin (manufactured by Tokyo Kasei Kogyo Co., Ltd.), to get control data. The test procedures are as follows. […]
(2) 0.10 ml of an enzyme solution prepared by dissolving 3.0 mg (2400 units; manufactured by Sigma Corporation) of mushroom tyrosinase in 7.0 ml of distilled water was added to the solution prepared in (1), for agitation for 15 seconds. The resulting solution was retained at 25° C., to measure the absorbance at 475 nm one minute-45 seconds later and 2 minute- 45 seconds later.
(3) The test procedures above in (1) and (2) were conducted three times for the individual test compounds and blank test (only dimethylsulfoxide), and the resulting mean was inserted in the following calculation formula to determine the ratio (%) of the inhibition of tyrosinase activity. Ratio of inhibition of tyrosinase activity (%)=[(T^1-T^2)/T^1]×100 T^1=difference in absorbance of blank solution between 2 minute-45 seconds later and one minute-45 seconds later T^2=difference in absorbance of solution with addition of test compound between 2 minute-45 seconds later and one minute-45 seconds later

| Structure (SMILES) | ability of scavenging radical compared with dl-α-tocopherol [1] | Ratio of scavenging DPPH radical [1] [%] | ratio of remaining linoleic acid [2] [%] | inhibition of tyrosinase activity compared with arbutin (FIG. 1) [3] | ratio of remaining linoleic acid ([2]; 2 weeks later, 40° C., 0.01 g test compound, 0.2 g linoleic acid, HPLC) [%] | ratio of remaining linoleic acid ([2]; 3 weeks later, 40° C., 0.01 g test compound, 0.2 g linoleic acid, HPLC) [%] | ratio of remaining linoleic acid ([2]; 4 weeks later, 40° C., 0.01 g test compound, 0.2 g linoleic acid, HPLC) [%] | ratio of remaining linoleic acid ([2]; one week later, 40° C., 0.01 g test compound, 0.2 g linoleic acid, HPLC) [%] |
| --- | --- | --- | --- | --- | --- | --- | --- | --- |
| CCCCCC(CC(=O)CCc1ccc(O)c(OC)c1)OC (stereo not drawn) [Compound of formula (11)] | higher levels than that of dl-α-tocopherol | 35.1 | 90.5 | superior to that of arbutin | – | – | – | – |
| CCCCCC(CC(O)CCc1ccc(O)c(OC)c1)OC (stereo not drawn) [Compound of formula (12)] | higher levels than that of dl-α-tocopherol | 40.0 | 89.2 | – | – | – | – | – |
| Cc1c(C)c2c(c(C)c1O)CCC(C)(CCCC(C)CCCC(C)CCCC(C)C)O2 (racemic) [Tocopherol, dl-α-tocopherol] | – | 26.7 | – | – | 73.2 | 62.6 | 57.3 | 83.6 |
